Experiments:
Conditions in all cases: 72 h
[1] = test system: U2OS; assay: FV IC50 (concentration giving fractional viability 0.5); higher = less potent killing
Description: (§1)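 U2OS cells treated with full dose titrations of drug; live and dead cells counted by STACK microscopy (mKate2 nuclei, SYTOX Green) at 72 h, biological triplicates. GR and FV dose responses were fitted with 4-parameter logistic models (GR lower bound -1). GRADE (0-100) is the rescaled angle of a linear fit of FV versus GR at doses with GR >= 0, giving the percentage of the response due to cell death.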

[2] = test system: U2OS; assay: GR50 (concentration giving GR = 0.5)
Description: as §1

[3] = test system: U2OS; assay: drug GRADE (percent of response due to cell death) (% (0-100)); higher = more death-driven response
Description: as §1

[4] = test system: U2OS; assay: normalized growth rate inhibition value (GR) relative to untreated cells (GR value (dimensionless, 1 = untreated growth)); higher = less growth inhibition
Description: (§2)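 U2OS::Nuc-mKate2 cells seeded in 96-well plates and treated with eight- to ten-point half-log or log dilutions of drug in the presence of 50 nM SYTOX Green. Live (mKate2+) and dead (SYTOX+) cells were counted by IncuCyte STACK live-cell microscopy at 72 h; biological triplicates. GR is the normalised growth-rate inhibition value (Hafner 2016; 1 = untreated growth, <0 = population shrinking). FV is live/(live+dead) cells, not normalised.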

[5] = test system: U2OS; assay: GRmin (fitted minimal GR value at highest effect) (GR value (dimensionless)); higher = less efficacious
Description: as §1

[6] = test system: U2OS; assay: fractional viability (live cells / total cells); higher = less cell death
Description: as §2

Structure (SMILES)	FV IC50 [1] [nM]	GR50 [2] [µM]	drug GRADE [3]	normalized growth rate inhibition value ([4]; 0.01 µM)	normalized growth rate inhibition value ([4]; 0.0316 µM)	normalized growth rate inhibition value ([4]; 0.1 µM)	normalized growth rate inhibition value ([4]; 0.316 µM)	normalized growth rate inhibition value ([4]; 1 µM)	normalized growth rate inhibition value ([4]; 3.16 µM)	normalized growth rate inhibition value ([4]; 10 µM)	normalized growth rate inhibition value ([4]; 31.6 µM)	GRmin [5]	fractional viability ([6]; 0.01 µM)	fractional viability ([6]; 0.0316 µM)	fractional viability ([6]; 0.1 µM)	fractional viability ([6]; 0.316 µM)	fractional viability ([6]; 1 µM)	fractional viability ([6]; 3.16 µM)	fractional viability ([6]; 10 µM)	fractional viability ([6]; 31.6 µM)	normalized growth rate inhibition value ([4]; 0.000100578 µM)	normalized growth rate inhibition value ([4]; 0.000317827 µM)	normalized growth rate inhibition value ([4]; 0.00100433 µM)	normalized growth rate inhibition value ([4]; 0.00317369 µM)	normalized growth rate inhibition value ([4]; 0.0100289 µM)	normalized growth rate inhibition value ([4]; 0.0316912 µM)	normalized growth rate inhibition value ([4]; 0.100144 µM)	normalized growth rate inhibition value ([4]; 0.316456 µM)	fractional viability ([6]; 0.000100578 µM)	fractional viability ([6]; 0.000317827 µM)	fractional viability ([6]; 0.00100433 µM)	fractional viability ([6]; 0.00317369 µM)	fractional viability ([6]; 0.0100289 µM)	fractional viability ([6]; 0.0316912 µM)	fractional viability ([6]; 0.100144 µM)	fractional viability ([6]; 0.316456 µM)
COC(=O)Nc1nc2cc(C(=O)c3ccc(F)cc3)ccc2[nH]1 [Flubendazole]	10700	0.566	61.2	0.993	1	0.892	0.706	0.286	0.11	-0.01	-0.0371	-0.0291	0.981	0.978	0.971	0.95	0.766	0.595	0.516	0.468	–	–	–	–	–	–	–	–	–	–	–	–	–	–	–	–
COc1cc2c(Oc3ccc(NC(=O)C4(C(=O)Nc5ccc(F)cc5)CC4)cc3F)ccnc2cc1OCCCN1CCOCC1 [Foretinib]	864	0.138	39.7	0.909	0.791	0.766	-0.079	-0.199	-0.831	-0.93	-0.682	-0.837	0.966	0.963	0.941	0.689	0.553	0.0154	0	0.0267	–	–	–	–	–	–	–	–	–	–	–	–	–	–	–	–
CCNC(=O)c1noc(-c2cc(C(C)C)c(O)cc2O)c1-c1ccc(CN2CCOCC2)cc1 [Luminespib]	18.6	0.00564	17.6	–	–	–	–	-0.331	–	–	–	-0.319	–	–	–	–	0.442	–	–	–	0.869	0.878	0.876	0.809	-0.00384	-0.331	-0.365	-0.239	0.99	0.99	0.989	0.983	0.844	0.419	0.436	0.464
CC(C)C[C@@H](C=O)NC(=O)[C@H](CC(C)C)NC(=O)[C@H](CC(C)C)NC(=O)OCc1ccccc1 [MG-132]	2240	1.03	13.5	1.02	1.01	0.929	0.9	0.524	-0.442	-0.885	-0.93	-0.949	0.973	0.977	0.979	0.974	0.929	0.226	0.00177	0	–	–	–	–	–	–	–	–	–	–	–	–	–	–	–	–
C=CCn1c(=O)c2cnc(Nc3ccc(N4CCN(C)CC4)cc3)nc2n1-c1cccc(C(C)(C)O)n1 [MK1775]	584	0.156	40.7	1.15	1.03	0.664	0.061	-0.346	-0.56	-0.681	-0.762	-0.689	0.978	0.977	0.948	0.725	0.294	0.125	0.0517	0.0225	–	–	–	–	–	–	–	–	–	–	–	–	–	–	–	–
O=C(Nc1ccc([N+](=O)[O-])cc1Cl)c1cc(Cl)ccc1O [Nicolsamide]	803	0.347	29.4	0.975	1.01	0.934	0.557	-0.319	-0.722	-0.81	-0.763	-0.791	0.98	0.975	0.979	0.942	0.33	0.0377	0.0138	0.0218	–	–	–	–	–	–	–	–	–	–	–	–	–	–	–	–
C[C@@H]1O[C@@H](O[C@H]2C[C@@H](O)[C@]3(CO)[C@H]4[C@H](O)C[C@]5(C)[C@@H](C6=CC(=O)OC6)CC[C@]5(O)[C@@H]4CC[C@]3(O)C2)[C@H](O)[C@H](O)[C@H]1O [Ouabain]	52.6	0.0164	30.9	0.661	0.148	-0.42	-0.554	-0.569	-0.6	-0.579	-0.629	-0.593	0.977	0.763	0.249	0.165	0.149	0.142	0.161	0.141	–	–	–	–	–	–	–	–	–	–	–	–	–	–	–	–
Cc1[nH]c2ccccc2c1CCNCc1ccc(/C=C/C(=O)NO)cc1 [Panobinostat]	1670	0.383	55.3	1.04	1.05	0.794	0.61	0.00935	-0.45	-0.679	-0.831	-0.832	0.983	0.984	0.979	0.933	0.685	0.271	0.0583	0.00906	–	–	–	–	–	–	–	–	–	–	–	–	–	–	–	–
COC(=O)c1ccc([C@H]2c3[nH]c4ccccc4c3C[C@H](C(=O)OC)N2C(=O)CCl)cc1 [RSL3]	3550	1.58	54.5	1.05	0.96	0.977	0.999	0.792	-0.133	-0.646	-0.916	-0.866	0.983	0.976	0.977	0.974	0.956	0.566	0.0831	0.00106	–	–	–	–	–	–	–	–	–	–	–	–	–	–	–	–

From the supplement of paper PMC7394473
